Patent EP2802310B1, “NEW USE OF ZERUMBONE AND COMPOSITIONS COMPRISING ZERUMBONE” (Sederma, priority 2012, dated 2013)

Experiments:
Mature human adipocytes [1] = test: Lipolytic effect, daily titration of released glycerol over 3 days; format: cell-based; conditions: Caffeine 300ppm; for activation at 300 ppm: Homo sapiens, Adipocyte, read-out: released glycerol, versus negative control
Procedure: (§1) Mature human adipocytes were treated with zerumbone to evaluate daily for 3 days. A daily titration of the released glycerol, reflecting lipolysis, was measured in the medium, before the media were changed in order to monitor the long-term effect.
In a second test, mature human adipocytes were treated with the product to evaluate daily for 3 days. A daily titration of the released glycerol was performed in the media, just before changing of the media in order to monitor the long term effect. Table 19: Comparison of the lipolytic effect of caffeine, zerumbone and of a mixture of caffeine and zerumbone on hypertrophied adipocytes in monolayer (n=4) at short and long term.

Mature human adipocytes [2] = test: Lipolytic effect, released glycerol after 3 hours; format: cell-based; conditions: Adipocyte, Caffeine 300ppm, contact time 3h, read-out: released glycerol, versus negative control
Procedure: In a first test, mature human adipocytes were treated with the product to evaluate for 3 hours, then titration of the released glycerol, reflecting lipolysis, was measured in the medium.

mature adipocytes = test: Intracellular triglyceride quantity in mature adipocytes; format: cell-based, human; conditions: Caffeine 300ppm
Procedure: as §1
Table 5: comparison of the intracellula triglyceride quantity found in mature adipocytes
Table 20: Comparison of the intracellular triglyceride content found in the mature adipocytes; compared effect of zerumbone, caffeine and of a mixture of zerumbone and caffeine.

Sirtuin-1 = Sirtuin-1 level in keratinocytes, ELISA; format: cell-based; conditions: Homo sapiens, Keratinocyte, 144 h, positive control at 500µm, read-out: Sirtuin-1 % Variation
Procedure: Human keratinocytes were cultured in the presence or absence of the Globularia cordifolia extract for 6 days and were then grinded and the intracellular levels of sirtuin-1 were measured using an ELISA method. Results were standardized by parallel measurement of total protein (BCA).

BSA = test: Anti-glycation activity, BSA and fructose, fluorescence; format: biochemical; conditions: positive control at 0.03%
Text: The anti-glycation effect of the extract of Globularia cordifolia was studied using a protein model, the BSA, and a natural reducing sugar, fructose which glycates, i.e. binds, to the protein in a non-enzymatic manner. The product of this binding is fluorescent and is monitored with a fluorimeter.

## Cn1c(=O)c2c(ncn2C)n(C)c1=O [Caffeine, caffeine]
Mature human adipocytes [1]; contact time 1 day
  released glycerol, versus negative control: +200%
Mature human adipocytes [1]; 24 h, contact time 1 day
  activation at 300 ppm: 200%
Mature human adipocytes [1]; 48 h, contact time 2 days
  activation at 300 ppm: 34%
Mature human adipocytes [1]; 72 h, contact time 3 days
  activation at 300 ppm: 18%
Mature human adipocytes [2]
  activation at 300 ppm: 171%
Mature adipocytes
  Triglycerides: 7120 ± 542 µM/10^6 cell.
Mature adipocytes; Homo sapiens, Adipocyte, 72 h, dns, read-out: Triglycerides Variation (%)
  inhibition at 300 ppm: 9%

## Cc1c(C)c2c(c(C)c1O)CCC(C)(C(=O)O)O2 (stereo not drawn) [Trolox]
Sirtuin-1
  activation at 500 µM: 27%

## N=C(N)NN [aminoguanidine]
BSA
  Glycation % Variation: -85%
